Assay results: article PMC7575536, “Synthesis of an acyl-acyl carrier protein synthetase inhibitor to study fatty acid recycling” (Scientific Reports, 2020)
Structures can show the parent of a compound that is named as a salt.

Target: T1, VhAasS (Vibrio harveyi, UniProt Q00IB3)
T1 construct: gene aasS; His6-tagged, expressed in E. coli BL21[DE3], Ni-NTA purified; tag removal not mentioned
T1 sequence (Q00IB3 1-533): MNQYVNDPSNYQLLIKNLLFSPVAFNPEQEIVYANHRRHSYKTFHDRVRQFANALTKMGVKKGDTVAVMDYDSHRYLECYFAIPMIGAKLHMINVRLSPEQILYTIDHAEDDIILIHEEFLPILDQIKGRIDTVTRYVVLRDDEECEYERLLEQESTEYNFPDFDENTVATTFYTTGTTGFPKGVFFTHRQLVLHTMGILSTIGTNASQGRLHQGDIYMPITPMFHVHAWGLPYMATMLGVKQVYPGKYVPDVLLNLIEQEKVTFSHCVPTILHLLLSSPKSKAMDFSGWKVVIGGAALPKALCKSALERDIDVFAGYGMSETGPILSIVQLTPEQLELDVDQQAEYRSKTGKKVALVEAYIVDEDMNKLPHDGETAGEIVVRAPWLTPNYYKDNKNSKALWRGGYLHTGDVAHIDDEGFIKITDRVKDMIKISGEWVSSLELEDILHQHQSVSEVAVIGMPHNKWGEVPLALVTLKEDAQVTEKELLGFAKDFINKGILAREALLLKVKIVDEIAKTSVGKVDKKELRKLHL
Assay: urea-PAGE of acyl-ACP loading, ImageJ densitometry
Assay type: biochemical
Conditions: decanoic acid 1 mM, ATP 10 mM, MgCl2 12.5 mM, TCEP 2.5 mM; holo-EcACP or holo-VcACP 30 µM; enzyme 0.5 µM; pH 7.5, 37 °C, 24 h

CCCCCCCCCC(=O)NS(=O)(=O)OC[C@H]1O[C@@H](n2cnc3c(N)ncnc32)[C@H](O)[C@@H]1O [compound 7, 5′-O-(N-decanylsulfamoyl)adenosine mono sodium salt]
% inhibition at 1 mM: In the presence of C10-AMS, VhAasS is completely inhibited from loading decanoic acid
